Source: US5189169A (priority 1991, dated 1993)
Values joined by “and” are separate entries in the source; they are usually repeats but may differ in a detail not shown here. Equal values may be shown once.

Legend:
Settings in all cases: in vivo
[1] = system: yellow nutsedge; parameters: species or system Cyperus esculentus
[2] = system: three grassy weeds (wild oat, watergrass, foxtail); parameters: species or system Avena fatua, Echinochloa crusgalli, Setaria viridis
[3] = system: three grassy weeds (wild oat, watergrass, foxtail); parameters: species or system Avena fatua, Echinochloa crusgalli, Setaria viridis; remark: listed apart in the source
[4] = system: three broadleaf weeds (morning glory, mustard, velvetleaf); parameters: species or system Ipomoea purpurea, Brassica kaber, Abutilon theophrasti
[5] = system: yellow nutsedge; parameters: species or system Cyperus esculentus; remark: listed apart in the source
[6] = system: three broadleaf weeds (morning glory, mustard, velvetleaf); parameters: species or system Ipomoea purpurea, Brassica kaber, Abutilon theophrasti; remark: listed apart in the source

Compound | % Control, Post-emergence, NS [1] | % Control, Pre-emergence, GR avg. [2] | % Control, Post-emergence, GR avg. [3] | % Control, Pre-emergence, BL avg. [4] | % Control, Pre-emergence, NS [5] | % Control, Post-emergence, BL avg. [6]
CCCSP(=O)(N(CCC)CCC)N(C)c1ccc(OC)cc1 (stereo not drawn) [Compound 10] | 10% and 0% | 0% | 30% and 23% | 0% | 9% | 80%
CCCN(CCC)P(=O)(Sc1ccccc1)N(CCC)CCC [Compound 63] | 0% | 0% | 60% and 43% | 3% | 0% | 80% and 91%
CCCCN(c1ccccc1)P(=O)(SCCC)N(CCC)CCC (stereo not drawn) [Compound 24] | 10% and 0% | 0% | 30% and 23% | 33% | 0% | 80% and 73%
CCCSP(=O)(N(C)CC)N(CCC)CCC (stereo not drawn) [Compound 2] | 20% and 10% | 33% | 80% and 57% | 33% | 0% | 100%
CCCSP(=O)(N(CCC)CCC)N(C)c1ccc(Cl)cc1C (stereo not drawn) [Compound 62] | 0% | 0% | 30% and 33% | 0% | 0% | 75% and 76%
CCCSP(=O)(N(CCC)CCC)N(C)c1ccc(Br)cc1C (stereo not drawn) [Compound 39] | 80% | 0% | 67% | 0% | 0% | 93%
CCCSP(=O)(N(CCC)CCC)N(C)c1ccc(Cl)cc1Cl (stereo not drawn) [Compound 38] | 0% | 0% | 40% | 0% | 0% | 100%
CCCSP(=O)(N(CC)CC(C)C)N(CC)CC(C)C [Compound 49] | 0% | 0% | 80% and 47% | 0% | 0% | 100%
CCCSP(=O)(N(CCC)CCC)N(CCC)c1ccccc1 (stereo not drawn) [Compound 25] | 0% | 0% | 50% and 67% | 33% | 0% | 50% and 67%
CCCSP(=O)(N(CCC)CCC)N(C)c1cccc(Cl)c1Cl (stereo not drawn) [Compound 35] | 0% | 0% | 20% and 33% | 0% | 0% | 20% and 33%
CCCSP(=O)(N(CCC)CCC)N(C)c1ccccc1C (stereo not drawn) [Compound 14] | 5% and 0% | 30% | 60% and 73% | 33% | 0% | 60% and 67%
CCCCN(CCCC)P(=O)(SCCC)N(C)c1ccc(OC)cc1 (stereo not drawn) [Compound 11] | 10% and 0% | 0% | 30% and 50% | 0% | 9% | 60% and 70%
CCCSP(=O)(N(CCC)CCC)N(C)c1ccc(Cl)c(Cl)c1 (stereo not drawn) [Compound 20] | 5% and 0% | 0% | 20% and 13% | 0% | 0% | 50% and 67%
CCCSP(=O)(N(CCC)CCC)N(CC)c1ccccc1 (stereo not drawn) [Compound 26] | 0% | 7% | 20% and 10% | 33% | 0% | 50%
CCCCN(CC(C)C)P(=O)(SCCC)N(CCCC)CC(C)C [Compound 50] | 0% | 0% | 90% and 77% | 0% | 0% | 85% and 70%
CCCSP(=O)(N(CCC)CCC)N(CCC)c1ccc(Cl)cc1C (stereo not drawn) [Compound 61] | 0% | 0% | 50% and 38% | 3% | 0% | 80% and 76%
CCCCCSP(=O)(N(CCCC)CCCC)N(CCCC)CCCC [Compound 4] | 0% | 0% | 70% and 77% | 0% | 0% | 50% and 45%
CCCSP(=O)(N(CCC)CCC)N(C)c1cccc([N+](=O)[O-])c1 (stereo not drawn) [Compound 44] | 0% | 0% | 10% | 0% | 0% | 53%
CCCSP(=O)(N(CCC)CCC)N(CCOC)CCOC (stereo not drawn) [Compound 46] | 0% | 0% | 30% and 47% | 0% | 0% | 60% and 73%
CCCCSP(=O)(N(CCC)CCC)N(CCC)CCC [Compound 1] | 10% and 5% | 2% | 90% and 85% | 50% | 0% | 90% and 100%
CCCN(CCC)P(=O)(Sc1ccc(Cl)cc1)N(CCC)CCC [Compound 6] | 0% | 0% | 70% and 53% | 0% | 0% | 80% and 93%
CCCSP(=O)(N(C)c1ccc(F)cc1)N(C)c1ccc(F)cc1 [Compound 45] | 0% and 10% | 0% | 50% and 75% | 0% | 0% | 90% and 92%
CCCCN(CCCC)P(=O)(SCCC)N(CCCC)CCCC [Compound 7, S-n-propyl-tetra(n-butyl) phosphorodiamide] | 10% and 0% | 0% | 90% and 93% | 0% | 0% | 90% and 100%
CCCN(CCC)P(=O)(SC(C)(C)C)N(CCC)CCC [Compound 3] | 5% and 0% | 0% | 80% and 70% | 100% | 0% | 80% and 100%
CCCSP(=O)(N(CCC)CCC)N(C)c1ccc(Cl)cc1 (stereo not drawn) [Compound 16] | 0% | 0% | 33% and 47% | 0% | 0% | 43% and 73%
CCCSP(=O)(N(CCC)CCC)N(C)c1cccnc1 (stereo not drawn) [Compound 40] | 0% | 0% | 10% | 0% | 0% | 70%
CCCN(CCC)P(=O)(Sc1ccccc1C)N(CCC)CCC [Compound 5] | 0% | 0% | 40% and 27% | 0% | 0% | 40% and 33%
CCCCN(CCCC)P(=O)(SCCC)N(C)c1ccc(Cl)cc1Cl (stereo not drawn) [Compound 23] | 0% | 0% | 20% and 13% | 0% | 0% | 50% and 43%
CCCN(CCC)P(=O)(Sc1ccc(Cl)c(Cl)c1)N(CCC)CCC [Compound 9] | 0% | 0% | 50% and 47% | 0% | 0% | 50% and 83%
CCCCCN(CCCCC)P(=O)(SCCC)N(C)c1ccccc1C (stereo not drawn) [Compound 15] | 5% and 0% | 0% | 50% and 47% | 0% | 0% | 80% and 60%
